Reference: ChEMBL document CHEMBL1139394, “Piperidine dispiro-1,2,4-trioxane analogues” (Bioorg Med Chem Lett, 2008)

Each compound was assayed on Plasmodium falciparum (assay: Antimalarial activity against Plasmodium falciparum 3D7 infected human erythrocytes after 24 hrs by [3H]hypoxanthine uptake).
Format: functional, organism-based

SMILES	IC50 [nM]
O=S(=O)(c1ccccc1)N1CCC2(CC1)OOC1(OO2)C2CC3CC(C2)CC1C3	10.7
CC(=O)N1CCC2(CC1)COC1(OO2)C2CC3CC(C2)CC1C3 (stereo not given)	183
C1CC2(CCN1)COC1(OO2)C2CC3CC(C2)CC1C3 (stereo not given)	121
O=S(=O)(c1ccccc1)N1CCC2(CC1)OOC1(O2)C2CC3CC(C2)CC1C3 (stereo not given)	6.22
CO[C@H]1O[C@@H]2O[C@@]3(C)CC[C@H]4[C@H](C)CC[C@@H]([C@H]1C)[C@@]24OO3 [ARTEMETHER]	1.26
CC(C)(C)OC(=O)N1CCC2(CC1)COC1(OO2)C2CC3CC(C2)CC1C3 (stereo not given)	198
CCS(=O)(=O)N1CCC2(CC1)COC1(OO2)C2CC3CC(C2)CC1C3 (stereo not given)	180
O=S(=O)(c1ccccc1)N1CCC2(CC1)COC1(OO2)C2CC3CC(C2)CC1C3 (stereo not given)	710
O=C(OCC1c2ccccc2-c2ccccc21)N1CCC2(CC1)COC1(OO2)C2CC3CC(C2)CC1C3 (stereo not given)	174
O=S(=O)(c1ccccc1)N1CCC2(CC1)OCC1(OO2)C2CC3CC(C2)CC1C3 (stereo not given)	> 1000
